Assay results as given in patent US4478844A, “Bradycardiac or analgesic 2-(N-(thienyl-2-methyl)-N-(2-fluoro-6-methyl-phenyl)-amino)-2-imidazolin e and salts thereof” (Boehringer Ingelheim KG, priority 1979, dated 1984).

Tests used:
mouse [1] = experiment: Analgesic activity, writhing test (mouse); format: in vivo
Description: (§1) The end product of Example 1, i.e. 2-[N-(2-fluoro-6-bromo-phenyl)-N-(thienyl-2-methyl)-amino]-2-imidazoline (A), and [N-2,6-dibromo-phenyl)-N-(thienyl-2-methyl)-amino]-2-imidazoline (B), disclosed in column 2, lines 47-48, of U.S. Pat. No. 3,937,717, were tested for analgesic activity and locomotion-inhibiting activity by the standard test methods described in the following literature references:
Analgesic activity: Ph. Linee, J. Pharmacol. (Paris) 3,4 513-515 (1972). Writhing test.

mouse [2] = experiment: Locomotion-inhibiting activity (mouse); format: in vivo; conditions: sc, read-out: Locomotion inhibition (mouse) ED50 s.c.
Description: as §1
Locomotion--inhibiting activity: K. Stockhaus et al., Committee on Problems of Drug Dependence (1970) 6890-6898 National Academy of Sciences.

[3] = po, read-out: Writhing test (mouse) ED50 p.o.
[4] = sc, read-out: Writhing test (mouse) ED50 s.c.

| Compound | ED50 (mouse [1]; [3]) | ED50 (mouse [1]; [4]) | ED50 (mouse [2]) |
| --- | --- | --- | --- |
| Fc1cccc(Br)c1N(Cc1cccs1)C1=NCCN1 [A, 2-[N-(2-fluoro-6-bromo-phenyl)-N-(thienyl-2-methyl)-amino]-2-imidazoline] | 0.28 mg/kg | 0.12 mg/kg | 0.13 mg/kg |
| Brc1cccc(Br)c1N(Cc1cccs1)C1=NCCN1 [B] | 0.6 mg/kg | 0.3 mg/kg | 0.6 mg/kg |
